Test results as given in patent publication US20040146959A1, “Fluorescent enzyme assay methods and compositions” (priority 2002, published 2004).
Where no end group is shown, it is not given here. [ ]: non-standard residue; d: D form. The star is where a group is joined. C13 = acyl group coded C13, not further defined; C15 = acyl group coded C15, not further defined; C17 = acyl group coded C17, not further defined; Palmitoyl = CCCCCCCCCCCCCCCC(=O)*; pS = N[C@@H](COP(=O)(O)O)C(=O)O; K(dye2) = not defined here; OOO = not defined here

Experiments:
protein kinase A = target: T1, protein kinase A (Bos taurus, UniProt P00517); test: Detection of protein kinase activity, fluorescence increase (Examples 4B, 5B, 6B); assay type: biochemical; conditions: for time to maximum fluorescence: after addition of ATP (compounds 7, 8) or enzyme (compound 9); for fold increase in fluorescence: maximum vs starting fluorescence; for maximum fluorescence after start of the kinase reaction / fluorescence before start of the kinase reaction: substrate 1 μM; for maximum fluorescence after start of the kinase reaction: ATP 0.5 mM, protein kinase A 35 or 7 units; for fluorescence before start of the kinase reaction: Tris pH 8.1 20 mM, MgCl2 1 mM, 100 μL
T1 construct: purchased Promega (Madison, Wis.)
Protocol: Fluorescence data were collected on a Perkin-Elmer LS-50B luminescence spectrometer. […] ATP was added to a final concentration of 0.5 mM and the fluorescence monitored, reaching a maximum of 180 fluorescence units after 6 minutes, or a 5-fold increase.
Fluorescence data were collected on a Perkin-Elmer LS-50B luminescence spectrometer. […] ATP was added to a final concentration of 0.5 mM and the fluorescence monitored, reaching a maximum of 493 fluorescence units after 5 minutes, or a 3.5-fold increase.
Fluorescence data were collected on a Perkin-Elmer LS-50B luminescence spectrometer. […] Protein kinase A (7 Units) was added and the fluorescence monitored, reaching a maximum of 420 fluorescence units after 3 minutes, or an 8-fold increase.

[1] = test system: CCCCCCCCCCCCCCCC(=O)NCc1ccc(C(=O)NCc2c(O)ccc3c2Oc2cc(O)ccc2C32OC(=O)c3cc(C(=O)N[C@@H](COP(=O)(O)O)C(=O)N[C@@H](CC(C)C)C(=O)N[C@@H](CCCNC(=N)N)C(=O)N[C@@H](CCCNC(=N)N)C(=O)N[C@@H](CCCNC(=N)N)C(=O)N[C@@H](CCCNC(=N)N)C(=O)N[C@@H](Cc4ccccc4)C(=O)N[C@@H](CO)C(=O)N[C@@H](CCCCNC(C)=O)C(=O)NCC(N)=O)ccc32)cc1; test: Protein kinase A detection, double reciprocal plot of initial velocities (Example 1B); assay type: biochemical; conditions: other: substrate 0.15, 0.3, 0.6 μM, Tris pH 8.5, Mg-ATP 1 mM, cAMP 1 μM, catalytic subunit 2 units
Protocol: (1 μM), and different concentrations of compound 1 (0.15 μM, 0.3 μM, and 0.6 μM), to which the catalytic subunit of protein kinase A (2 units) was then added. Fluorescence was monitored on a Perkin-Elmer LS-50B luminescence spectrometer with 500 nm excitation and emission at 530 nm, and slit width at 5 nm.

MAPKAP2 = MAPKAP2 (Homo sapiens, UniProt P49137); test: Phosphorylation assay of linker substrates (Table 3), MAPKAP2; assay type: biochemical; conditions: substrate conc 8 uM
[2] = test system: T2, compound 1, palmitoyl-FAM-S(OPO3^2-)LRRRRFSK(Ac)G-amide
T2 sequence: SLRRRRFSKG

PKA = target: T3, PKA (Bos taurus, UniProt P00517); test: Phosphorylation assay of linker substrates (Table 3), PKA; assay type: biochemical; conditions: substrate conc 8 uM
T3 construct: purchased Promega (Madison, Wis.)

[3] = target: T4, pp60^c-src-related protein tyrosine kinase (Homo sapiens, UniProt P12931); test: Detection of pp60c-src-related protein tyrosine kinase (Example 10B); assay type: biochemical; conditions: substrate 2.5 μM, 5 μL reaction volume, ATP 50 μM
T4 construct: purchased Upstate, Inc. (Lake Placid, N.Y.) 14-326
Protocol: Example 10 describes an assay for pp60^c-src-related protein tyrosine kinase. […] Enzyme reactions were performed in triplicate for a single substrate concentration, and two no-enzyme controls were also performed.
Five wells of a Corning 384-well plate, black with a non-binding surface and low volume wells (cat. No. 3676) (Corning, Inc., Acton, Mass.) were used. Each well contained 5 μL of a solution containing compound 9 (2.5 μM), MgCl2 (1 mM), Tris buffer, pH 8.1 (20 mM) and src, active (1 unit, cat. No. 14-326). The kinase reaction was initiated in three of the wells by the addition of 1.25 μL of ATP (200 μM) to a final concentration of 50 μM.

MAPK = test: Phosphorylation assay of linker substrates (Table 3), MAPK; assay type: biochemical; conditions: substrate conc 16 uM
Src, lyn, fyn = test: Phosphorylation assay of linker substrates (Table 3), Src, lyn, fyn; assay type: biochemical; conditions: substrate conc 8 uM
Akt = Akt (Homo sapiens, UniProt P31749); test: Phosphorylation assay of linker substrates (Table 3), Akt; assay type: biochemical; conditions: substrate conc 8 uM
[4] = target: E. coli alkaline phosphatase (Escherichia coli, UniProt P00634); test: Detection of phosphatase activity (Example 2B); assay type: biochemical; conditions: substrate 20 μM, Tris HCl pH 9, MgCl2 1 mM, 0.5 units enzyme
Protocol: Phosphatase reactions were performed in a 100 μL reaction mixture containing compound 2 (20 μM), Tris HCl buffer (50 mM) at pH 9, and MgCl2 (1 mM). Reactions were initiated by adding 0.5 units of E. coli alkaline phosphatase in 1 to 5 μL. The fluorescence was monitored on a Perkin-Elmer LS-50B luminescence spectrometer with excitation at 480 nm and emission at 525 and slit widths at 5 nm.

PKC = test: Phosphorylation assay of linker substrates (Table 3), PKC; assay type: biochemical; conditions: substrate conc 4 or 6 uM (column Conc)
Protocol: Protein kinase C reaction mixture aliquots (9 μL each) containing 2 μL 5× buffer (composed of 100 mM Tris, pH 8.1+25 mM MgCl2, and 0.5% v/v β-mercaptoethanol) 1 μL Upstate Lipid Activator, 0.05 μL Promega Protein Kinase C, 5.55 μL deionized water, and 0.4 μL substrate were added to wells of the 384 well plate. The reactions were initiated by the addition of 1 μL of Sigma-Aldrich ATP into each well.

MAPKAP2, sequence (P49137 whole entry): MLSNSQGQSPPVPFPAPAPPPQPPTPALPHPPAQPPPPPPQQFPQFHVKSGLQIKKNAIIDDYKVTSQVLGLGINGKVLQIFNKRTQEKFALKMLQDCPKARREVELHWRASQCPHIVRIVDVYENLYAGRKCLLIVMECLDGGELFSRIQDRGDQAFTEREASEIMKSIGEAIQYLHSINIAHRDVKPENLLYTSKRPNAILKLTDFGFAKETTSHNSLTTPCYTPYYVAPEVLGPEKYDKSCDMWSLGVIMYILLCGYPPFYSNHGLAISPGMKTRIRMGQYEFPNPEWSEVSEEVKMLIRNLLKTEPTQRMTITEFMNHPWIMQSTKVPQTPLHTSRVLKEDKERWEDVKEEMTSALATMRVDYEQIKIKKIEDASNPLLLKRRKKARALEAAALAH
Akt, sequence (P31749 whole entry): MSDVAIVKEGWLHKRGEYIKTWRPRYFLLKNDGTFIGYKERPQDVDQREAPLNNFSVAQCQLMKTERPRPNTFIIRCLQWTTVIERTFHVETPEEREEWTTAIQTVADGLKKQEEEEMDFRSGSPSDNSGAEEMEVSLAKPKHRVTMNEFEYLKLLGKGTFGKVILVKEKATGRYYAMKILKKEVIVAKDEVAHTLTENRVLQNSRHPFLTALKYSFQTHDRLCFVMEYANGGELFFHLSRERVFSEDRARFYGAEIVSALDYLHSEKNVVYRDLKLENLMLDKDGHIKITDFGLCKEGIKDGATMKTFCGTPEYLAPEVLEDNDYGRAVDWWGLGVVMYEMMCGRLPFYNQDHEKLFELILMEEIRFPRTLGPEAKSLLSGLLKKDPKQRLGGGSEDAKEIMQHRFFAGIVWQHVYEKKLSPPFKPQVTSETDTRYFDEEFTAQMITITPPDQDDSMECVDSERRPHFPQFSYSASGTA
E. coli alkaline phosphatase, sequence (P00634 22-471): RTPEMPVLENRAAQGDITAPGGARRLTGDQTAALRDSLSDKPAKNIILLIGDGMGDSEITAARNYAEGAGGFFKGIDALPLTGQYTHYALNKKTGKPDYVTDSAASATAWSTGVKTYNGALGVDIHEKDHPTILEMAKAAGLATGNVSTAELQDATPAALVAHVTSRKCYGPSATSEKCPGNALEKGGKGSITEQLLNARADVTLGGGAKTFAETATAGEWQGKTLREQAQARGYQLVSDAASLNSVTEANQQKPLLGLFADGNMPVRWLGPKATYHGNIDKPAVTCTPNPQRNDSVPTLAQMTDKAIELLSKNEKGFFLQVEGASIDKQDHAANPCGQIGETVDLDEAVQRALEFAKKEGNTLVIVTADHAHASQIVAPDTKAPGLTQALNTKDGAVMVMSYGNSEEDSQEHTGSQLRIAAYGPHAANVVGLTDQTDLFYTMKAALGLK

With “N-AcetylRGRPRTSSFAEG-OOOK(N-5-Carboxysulfo-fluroescein)K(N-Octadecanoyl)-amide [Compound 9]” the “time to maximum fluorescence” value (protein kinase A) was 3 min, the “fold increase in fluorescence” value (protein kinase A) was 8 fold and the “maximum fluorescence after start of the kinase reaction” value (from here on “maximum fluorescence after start”) (protein kinase A) was 420 fluorescence units. For the same substance, the “fluorescence before start of the kinase reaction” value (shortened to “fluorescence before start”) (protein kinase A) was 50 fluorescence units.
Substance protein kinase A (Bos taurus) has a Km [1] of 0.3 µM.
“(5-carboxy-2,7-dipyridyl-sulfofluorescein)-K-(N-perfluoro-octanoyl-proline)-LRRASLG-amide [Compound 8]” was tested, and the “time to maximum fluorescence” value (protein kinase A) was 5 min, the “fold increase in fluorescence” value (protein kinase A) was 3.5 fold and the “maximum fluorescence after start” value (protein kinase A) was 493 fluorescence units. For the same substance, the “fluorescence before start” value (protein kinase A) was 140 fluorescence units.
In the case of “C16-OOOK(dye2)RLNRTLSV-NH2 ({Palmitoyl-OOO-K(dye2)}-RLNRTLSV-NH2; reading uncertain; also: printed as C16-OOOK(dye2)RLNRTLSV-NH2) [MAPKAP2 substrate]”, the Fold increase (MAPKAP2) is reported as 4×, the “RFUs at 10 uL (final)” value (MAPKAP2) is reported as 3200 RFUs and the “RFUs at 10 uL (initial)” value (MAPKAP2) is reported as 800 RFUs.
protein kinase A was tested, and the “Km (double reciprocal plot of initial velocities, fluorescence kinase assay)” value [2] was “a Km value of 0.3 µM”.
“C13-K(dye2)-LRRASLG-NH2 ({C13-K(dye2)}-LRRASLG-NH2; reading uncertain; also: printed as C13-K(dye2)-LRRASLG-NH2) [PKA substrate; dye2 = 5-carboxy-2′,7′-dipyridyl-sulfonefluorescein]” was tested, and the Fold increase (PKA) was 5×, the “RFUs at 10 uL (final)” value (PKA) was 5000 RFUs and the “RFUs at 10 uL (initial)” value (PKA) was 1000 RFUs.
With “N-palmitoyl-Lys(ε-N-5-carboxy-sulfonefluorescein)KVEKIGEGTYGVVKK-amide ({Palmitoyl-K(5-carboxy-sulfonefluorescein)}-KVEKIGEGTYGVVKK-NH2) [Compound 13]” the “fluorescent signal on reaction with kinase” value [3] was “a strong fluorescent signal with high signal-to-noise was observed”.
In the case of “C17-OOOK(dye2)PRTPGGR-NH2 ({C17-OOO-K(dye2)}-PRTPGGR-NH2; reading uncertain; also: printed as C17-OOOK(dye2)PRTPGGR-NH2) [MAPK substrate]”, the Fold increase (MAPK) is reported as 5×, the “RFUs at 10 uL (final)” value (MAPK) is reported as 5700 RFUs and the “RFUs at 10 uL (initial)” value (MAPK) is reported as 1100 RFUs.
“C16-OOOK(dye2)RIGEGTYGVVRR-NH2 ({Palmitoyl-OOO-K(dye2)}-RIGEGTYGVVRR-NH2; reading uncertain; also: printed as C16-OOOK(dye2)RIGEGTYGVVRR-NH2) [Src, lyn, fyn substrate]” was tested, and the Fold increase (Src, lyn, fyn) was 6.5×, the “RFUs at 10 uL (final)” value (Src, lyn, fyn) was 6500 RFUs and the “RFUs at 10 uL (initial)” value (Src, lyn, fyn) was 1000 RFUs.
In the case of “C15-OOOK(dye2)RPRTSSF-NH2 ({C15-OOO-K(dye2)}-RPRTSSF-NH2; reading uncertain; also: printed as C15-OOOK(dye2)RPRTSSF-NH2) [Akt substrate]”, the Fold increase (Akt) is reported as 4×, the “RFUs at 10 uL (final)” value (Akt) is reported as 7500 RFUs and the “RFUs at 10 uL (initial)” value (Akt) is reported as 1500 RFUs.
“C13-OOOK(dye2)-LRRASLG-NH2 (not fully specified (N-terminus); printed as C13-OOOK(dye2)-LRRASLG-NH2) [PKA substrate; O = 2-aminoethoxy-2-ethoxyacetyl linker]” was tested, and the Fold increase (PKA) was 5×, the “RFUs at 10 uL (final)” value (PKA) was 5000 RFUs and the “RFUs at 10 uL (initial)” value (PKA) was 1000 RFUs.
In the case of “N-(1H, 1H,2H,2H-Perfluorodecyl-1-thiol-2-acetyl)-K-(5-carboxysulfofluorescein) LRRASL-G-amide [Compound 7]”, the “time to maximum fluorescence” value (protein kinase A) is reported as 6 min, the “fold increase in fluorescence” value (protein kinase A) is reported as 5 fold and the “maximum fluorescence after start” value (protein kinase A) is reported as 180 fluorescence units. The “fluorescence before start” value (protein kinase A) was 35 fluorescence units.
In the case of “palmitoyl-LRRRRFS(OPO3^2−)K(5-FAM)G-amide (Palmitoyl-LRRRRF[pS]-{K(5-FAM)-Gly-NH2}) [Compound 2]”, the “change in fluorescence over time on reaction with phosphatase” value [4] is reported as “immediate and significant increase in fluorescence over time”.
“C17-OOOK(tet)-RQGSFRA-NH2 ({C17-OOO-K(TET)}-RQGSFRA-NH2; reading uncertain; also: printed as C17-OOOK(tet)-RQGSFRA-NH2) [PKC substrate; tet = 2′,7′,4,7-tetachloro-5-carboxy fluorescein]” was tested, and the Fold increase (PKC) was 7×, the “RFUs at 10 uL (final)” value (PKC) was 4900 RFUs and the “RFUs at 10 uL (initial)” value (PKC) was 700 RFUs.
For “(N-palmitoyl)-Lys(N-5-carboxy-2,′7′-dipyridyl-sulfofluorescein)-OOO-RREGSFR-amide (RREGSFR-NH2; not fully specified (N-terminus); printed as C16-OOOK(dye2)-RREGSFR-NH2) [Compound 10]”, the Fold increase (PKC) was 4.5×, the “RFUs at 10 uL (final)” value (PKC) was 3000 RFUs and the “RFUs at 10 uL (initial)” value (PKC) was 650 RFUs.
